From ChEMBL document CHEMBL1148794, “Structure-activity relationship of a series of inhibitors of monoacylglycerol hydrolysis--comparison with effects upon fatty acid amide hydrolase” (J Med Chem, 2007)

Legend:
[1] = molecular target: T1, Monoglyceride lipase (Rattus norvegicus) (UniProt Q8R431); assay: (§1) Inhibition of MGL in rat cerebellum membrane fractions assessed as [3H]2-oleoylglycerol hydrolysis; format: cell membranes
T1 sequence (whole entry): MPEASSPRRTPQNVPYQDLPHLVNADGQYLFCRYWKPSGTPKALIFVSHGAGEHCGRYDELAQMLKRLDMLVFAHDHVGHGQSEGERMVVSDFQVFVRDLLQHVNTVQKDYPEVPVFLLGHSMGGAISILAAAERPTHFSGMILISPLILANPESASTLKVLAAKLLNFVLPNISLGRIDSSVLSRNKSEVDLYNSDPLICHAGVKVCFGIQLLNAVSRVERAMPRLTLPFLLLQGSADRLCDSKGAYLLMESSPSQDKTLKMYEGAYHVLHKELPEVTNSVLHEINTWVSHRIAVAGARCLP

[2] = molecular target: T2, Fatty-acid amide hydrolase 1 (Rattus norvegicus) (UniProt P97612); assay: (§2) Inhibition of FAAH in rat cerebellum membranes assessed as [3H]anandamide hydrolysis; format: cell membranes; details: Membrane
T2 sequence (whole entry): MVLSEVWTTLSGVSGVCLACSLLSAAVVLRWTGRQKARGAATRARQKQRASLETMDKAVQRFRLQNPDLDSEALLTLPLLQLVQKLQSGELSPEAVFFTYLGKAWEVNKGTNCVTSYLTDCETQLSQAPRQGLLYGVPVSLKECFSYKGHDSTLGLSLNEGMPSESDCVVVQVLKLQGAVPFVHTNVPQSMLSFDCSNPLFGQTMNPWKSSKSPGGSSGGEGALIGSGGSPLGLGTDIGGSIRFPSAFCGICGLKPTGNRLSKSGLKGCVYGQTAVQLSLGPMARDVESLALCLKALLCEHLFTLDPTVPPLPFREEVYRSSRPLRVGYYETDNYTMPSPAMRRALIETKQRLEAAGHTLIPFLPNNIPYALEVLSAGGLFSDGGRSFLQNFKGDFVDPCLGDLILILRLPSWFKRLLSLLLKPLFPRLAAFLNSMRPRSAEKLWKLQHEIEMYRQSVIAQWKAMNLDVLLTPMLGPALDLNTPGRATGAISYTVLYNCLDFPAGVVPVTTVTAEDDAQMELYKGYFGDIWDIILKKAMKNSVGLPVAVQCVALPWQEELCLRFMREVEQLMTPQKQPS

[3] = molecular target: T3, Fatty-acid amide hydrolase 1 (Rattus norvegicus, UniProt P97612); assay: as §2; format: cell membranes, Membrane
T3 sequence (P97612 whole entry): T2 sequence (whole entry)

[4] = molecular target: T1, Monoglyceride lipase (Rattus norvegicus); assay: Inhibition of MGL in rat cerebellum membrane fractions assessed as [3H]2-oleoylglycerol hydrolysis at 100 uM; format: cell membranes
[5] = molecular target: T1, Monoglyceride lipase (Rattus norvegicus); assay: (§3) Inhibition of MGL in rat cerebellum cytosolic fractions assessed as [3H]2-oleoylglycerol hydrolysis; format: tissue-based
[6] = molecular target: T1, Monoglyceride lipase (Rattus norvegicus); assay: Inhibition of MGL in rat cerebellum cytosolic fractions assessed as [3H]2-oleoylglycerol hydrolysis at 100 uM; format: tissue-based
[7] = molecular target: T4, Monoglyceride lipase (Rattus norvegicus, UniProt Q8R431); assay: as §3; format: tissue-based
T4 sequence (Q8R431 whole entry): T1 sequence (whole entry)

[8] = molecular target: T4, Monoglyceride lipase; assay: as §1; format: cell membranes
[9] = molecular target: T2, Fatty-acid amide hydrolase 1 (Rattus norvegicus); assay: Inhibition of FAAH in rat cerebellum membranes assessed as [3H]anandamide hydrolysis at 100 uM; format: cell membranes; details: Membrane

Log I50 [1]	pI50 (-log10 of IC50 in M) [2]	IC50 [3] [µM]	inhibition [4] [%]	pI50 (-log I50, M) [5]	inhibition [6] [%]	inhibition [9] [%]	Structure (SMILES)	IC50 [7] [µM]	IC50 [8] [µM]
< 4	4.75	18	49	< 4	36	–	O=C(OCC1CCCCO1)c1cccc(-c2ccccc2)c1 (racemic)	–	–
< 4	5.13	7.5	38	4.1	–	–	CCCCC/C=C\C/C=C\CCCCCCCC(=O)OCC1CCCCO1 (racemic)	73	–
–	–	–	18	–	–	–	CCCCC/C=C\C/C=C\CCCCCCCC(=O)OCC1CO1 (racemic)	–	–
< 4	4.37	43	47	< 4	38	–	O=C(OCC1CCCCO1)c1ccccc1-c1ccccc1 (racemic)	–	–
< 4	< 4	–	18	< 4	29	5	O=C(OCC1CO1)c1ccccc1-c1ccccc1 (racemic)	–	–
< 4	< 4	–	0.2	< 4	14	19	O=C(OCC1CO1)c1ccccc1 (racemic)	–	–
< 4	4.73	19	33	4.64	–	–	CC/C=C\C/C=C\C/C=C\CCCCCCCC(=O)OCC1CCCCO1 (racemic)	23	–
< 4	4.98	11	46	4.37	–	78	CCCCC/C=C\C/C=C\C/C=C\C/C=C\CCCC(=O)OCC1CCOC1 (stereo not drawn)	43	–
< 4	4.28	53	24	5.5	53	–	O=C(OCC1CCCCO1)c1ccccc1 (racemic)	3	–
4	4.68	21	–	4.57	–	–	CCCCC/C=C\C/C=C\C/C=C\C/C=C\CCCC(=O)OCCC1OCC(C)(C)CO1	27	99
4.1	4.49	32	–	< 4	43	–	O=C(OCC1CCCCO1)c1ccc(-c2ccccc2)cc1 (racemic)	–	80
< 4	4.22	61	19	< 4	40	–	O=C(OCC1CO1)c1cccc(-c2ccccc2)c1 (racemic)	–	–
< 4	5	10	36	< 4	42	82	CCCCCC/C=C\CCCCCCCC(=O)OCC1CCCCO1 (racemic)	–	–
4.1	4.48	33	–	4.67	–	–	CCCCC/C=C\C/C=C\C/C=C\C/C=C\CCCC(=O)OCC1CCCO1 (stereo not drawn)	21	75
4.3	5.8	1.6	–	4.97	–	–	CC/C=C\C/C=C\C/C=C\CCCCCCCC(=O)OCC1CO1 (racemic)	11	50
< 4	4.53	29	35	< 4	12	–	CCCCCCCC/C=C\CCCCCCCC(=O)OCC1CCCCO1 (racemic)	–	–
< 4	4.45	35	9	< 4	43	–	O=C(OCC1CO1)c1ccc(-c2ccccc2)cc1 (racemic)	–	–
< 4	4.96	11	8	< 4	6	–	CCCCCCCC/C=C\CCCCCCCC(=O)OCC1CO1 (racemic)	–	–
4.55	5.09	8.2	–	4.87	84	–	CCCCCC/C=C\CCCCCCCC(=O)OCC1CO1 (racemic)	13	28

Structure (SMILES)	Log I50 [1]	pI50 (-log10 of IC50 in M) [2]	IC50 [3] [µM]	inhibition [4] [%]	pI50 (-log I50, M) [5]	inhibition [6] [%]	inhibition [9] [%]	IC50 [7] [µM]	IC50 [8] [µM]
CCCCC/C=C\C/C=C\C/C=C\C/C=C\CCCC(=O)OCC1CCCCO1 (racemic)	4.58	4.3	51	–	5.26	–	–	5.6	26
CCCCC/C=C\C/C=C\C/C=C\C/C=C\CCCC(=O)OC[C@H]1COC(C)(C)O1	< 4	4.55	28	34	4.22	–	–	60	–
CCCCC/C=C\C/C=C\C/C=C\C/C=C\CCCC(=O)NCC1COC(C)(C)O1 (racemic)	< 4	4.05	90	45	4.8	71	–	15	–
CCCCC/C=C\C/C=C\C/C=C\C/C=C\CCCC(=O)OC[C@H]1CO1	< 4	–	6	–	5.2	–	–	6.3	–
CCCCC/C=C\C/C=C\C/C=C\C/C=C\CCCC(=O)NCC1CCCO1 (stereo not drawn)	< 4	4.25	56	44	4.47	–	–	34	–
CCCCC/C=C\C/C=C\C/C=C\C/C=C\CCCC(=O)OC[C@@H]1CO1	< 4	–	12	–	5.1	–	–	8	–
CCCCC/C=C\C/C=C\C/C=C\C/C=C\CCCC(=O)OCc1ccc2c(c1)OCO2	< 4	4	91	3	4.35	–	–	45	–
CCCCC/C=C\C/C=C\C/C=C\C/C=C\CCCC(=O)OC1CCOCC1	< 4	5.3	5.3	33	4.5	62	63	30	–
CCCCC/C=C\C/C=C\C/C=C\C/C=C\CCCC(=O)NC[C@@H]1CCCO1	4.1	4.16	69	–	5.5	59	–	3.5	70
CCCCC/C=C\C/C=C\C/C=C\C/C=C\CCCC(=O)OC[C@@H]1COC(C)(C)O1	< 4	4.76	17	38	< 4	46	–	–	–
CCCCC/C=C\C/C=C\C/C=C\C/C=C\CCCC(=O)OCC1COC(C)(C)O1 (racemic)	4	4	98	–	4.3	–	–	45	95
CCCCC/C=C\C/C=C\C/C=C\C/C=C\CCCC(=O)NC[C@H]1CCCO1	4.09	4.01	99	–	4.59	–	–	25	81
CCCCC/C=C\C/C=C\C/C=C\C/C=C\CCCC(=O)OCC1CO1 (racemic)	4.72	–	12	–	–	–	–	–	19
